Measured values taken from patent US3957764A, “6-Aminopenicillanic acid derivatives” (priority 1969, dated 1976).
Values after ≈ are worked out from the molar mass of the structure shown. Like-named read-outs stand apart in the source and are kept apart here.

How the values were obtained:
Alcaligenes faecalis = test: Antibacterial spectrum (Table A), 50% inhibition; type: cell-based
Source text: (§1) This effect is quite unexpected, since of the hitherto known derivatives of 6-aminopenicillanic acid only those being substituted with an acyl group at the 6-amino group have shown an antibacterial effect. The effect on penicillin-sensitive, gram-positive bacteria is less than that of benzylpenicillin and of α-aminobenzylpenicillin, whereas the effect on gram-negative bacilli, e.g. coli and salmonella species, is on a many times higher level than that of e.g. benzylpenicillin and α-aminobenzylpenicillin. […] IC50 means the concentration required for 50% inhibition.

Bacillus subtilis KA2 = test: Antibacterial spectrum (Table A), 50% inhibition; type: cell-based
Source text: as §1

[1] = system: Diplococcus pneumoniae EA; test: Antibacterial spectrum (Table A), 50% inhibition; type: cell-based; details: Streptococcus pneumoniae
Source text: as §1

[2] = system: Erysipelothrix insidiosa FU; test: Antibacterial spectrum (Table A), 50% inhibition; type: cell-based; details: Erysipelothrix rhusiopathiae
Source text: as §1

[3] = system: Escherichia coli, average of 36 strains; test: Antibacterial spectrum (Table A), 50% inhibition; type: cell-based
Source text: as §1

[4] = system: Klebsiella pneumoniae, average of 12 strains; test: Antibacterial spectrum (Table A), 50% inhibition; type: cell-based
Source text: as §1

[5] = system: Listeria Monocytogenes FT; test: Antibacterial spectrum (Table A), 50% inhibition; type: cell-based
Source text: as §1

[6] = system: Proteus, average of 8 strains; test: Antibacterial spectrum (Table A), 50% inhibition; type: cell-based
Source text: as §1

Pseudomonas aeruginosa = test: Antibacterial spectrum (Table A), 50% inhibition; type: cell-based
Source text: as §1

[7] = system: Salmonella abortivoequina; test: Antibacterial spectrum (Table A), 50% inhibition; type: cell-based
Source text: as §1

Salmonella chlerasuis = test: Antibacterial spectrum (Table A), 50% inhibition; type: cell-based
Source text: as §1

Salmonella enteritidis = test: Antibacterial spectrum (Table A), 50% inhibition; type: cell-based; details: Salmonella enterica
Source text: as §1

Salmonella hirschfeldii = test: Antibacterial spectrum (Table A), 50% inhibition; type: cell-based
Source text: as §1

Salmonella paratyphi A = test: Antibacterial spectrum (Table A), 50% inhibition; type: cell-based; details: Salmonella enterica
Source text: as §1

[8] = system: Salmonella schottmuelleri; test: Antibacterial spectrum (Table A), 50% inhibition; type: cell-based
Source text: as §1

Salmonella typhimurium = test: Antibacterial spectrum (Table A), 50% inhibition; type: cell-based; details: Salmonella enterica
Source text: as §1

Salmonella typhosa = test: Antibacterial spectrum (Table A), 50% inhibition; type: cell-based; details: Salmonella enterica
Source text: as §1

Shigella dysenteriae = test: Antibacterial spectrum (Table A), 50% inhibition; type: cell-based
Source text: as §1

Shigella flexneri = test: Antibacterial spectrum (Table A), 50% inhibition; type: cell-based
Source text: as §1

[9] = system: Staph. aureus, penicillin sensitive; test: Antibacterial spectrum (Table A), 50% inhibition; type: cell-based; details: Staphylococcus aureus
Source text: as §1

[10] = system: Staph. aureus, penicillinase producing; test: Antibacterial spectrum (Table A), 50% inhibition; type: cell-based; details: Staphylococcus aureus
Source text: as §1

[11] = system: Streptococcus faecalis E13; test: Antibacterial spectrum (Table A), 50% inhibition; type: cell-based; details: Enterococcus faecalis
Source text: as §1

Streptococcus pyogenes = test: Antibacterial spectrum (Table A), 50% inhibition; type: cell-based
Source text: as §1

Vibrio comma = test: Antibacterial spectrum (Table A), 50% inhibition; type: cell-based; details: Vibrio cholerae
Source text: as §1

[12] = system: Escherichia coli HA2 Leo strain; test: Antibacterial activity (Tables A and B), 50% inhibition; type: cell-based; details: HA2LEOSTRAIN, Table A
Source text: as §1
In Table B below the activity of a number of the compounds of the invention against the Escherichia coli HA2 Leo strain of Table A is shown:
The compounds of Table B were obtained by enzymatic hydrolysis of the corresponding esters described in the Examples mentioned by treatment with a 20 per cent mouse serum at 37°C in 90 minutes.

Escherichia Coli HA2 = test: In vivo experiment: survival of mice infected with Escherichia Coli HA2 (Table C); details: 10 mice
Protocol: The great difference between the spectrum of the hereinbefore mentioned FL 1060 and those of G-penicillin and ampicillin indicates a difference in the mode of action. This is also supported by in vivo experiments, in which mice (weight 27 to 30 g) were infected with 0.5 ml of a 24 hour old NIH bouillon culture of Escherichia Coli HA2 1000 times diluted in gastric mucin (5%) (Orthana). After half an hour and again after 61/2 hours a single dose was given subcutaneously in 0.5 ml. of a 0.9 per cent sodium chloride solution. After 24 hours the numbers of surviving mice were registered.
All surviving mice were still alive after 4 days, when observation of them was terminated.

Solubility in water = type: physicochemical
Bacillus megatherium KD = test: Antibacterial spectrum (Table A), 50% inhibition; type: cell-based
Source text: as §1

[13] = system: Corynebacterium xerosis FF; test: Antibacterial spectrum (Table A), 50% inhibition; type: cell-based
Source text: as §1

[14] = Diplococcus pneumoniae EA, read-out: IC50
[15] = average of 12 strains, read-out: IC50
[16] = Listeria Monocytogenes FT, read-out: IC50
[17] = Proteus, average of 8 strains, read-out: IC50
[18] = Salmonella abortivoequina, read-out: IC50
[19] = Salmonella chlerasuis, read-out: IC50
[20] = Salmonella enteritidis, read-out: IC50
[21] = Salmonella typhimurium, read-out: IC50
[22] = Streptococcus faecalis E13, read-out: IC50

SMILES | IC50 (Alcaligenes faecalis) [µg/mL] | IC50 (Bacillus subtilis KA2; read-out: IC50) [µg/mL] | IC50 [1, 14] [µg/mL] | IC50 [2] [µg/mL] | IC50 [3] [µg/mL] | IC50 [4, 15] [µg/mL] | IC50 [5, 16] [µg/mL] | IC50 [6, 17] [µg/mL] | IC50 (Pseudomonas aeruginosa; read-out: IC50) [µg/mL] | IC50 [7, 18] [µg/mL] | IC50 (Salmonella hirschfeldii) [µg/mL] | IC50 (Salmonella paratyphi A) [µg/mL] | IC50 [8] [µg/mL] | IC50 (Salmonella typhosa) [µg/mL] | IC50 (Shigella dysenteriae) [µg/mL] | IC50 (Shigella flexneri) [µg/mL] | IC50 [9] [µg/mL] | IC50 [10] [µg/mL] | IC50 (Vibrio comma) [µg/mL] | IC50 [12] [µg/mL] | also measured
CC1(C)S[C@@H]2[C@H](NC(=O)[C@H](N)c3ccccc3)C(=O)N2[C@H]1C(=O)O [Ampicillin, α-aminobenzylpenicillin] | 0.5 (≈ 1.43 µM) | 0.025 (≈ 0.0715 µM) | 0.01 (≈ 0.0286 µM) | 0.04 (≈ 0.114 µM) | 2.2 (≈ 6.3 µM) | 26 (≈ 74.4 µM) | 0.1 (≈ 0.286 µM) | 1.3 (≈ 3.72 µM) | > 100 | 0.25 (≈ 0.715 µM) | 0.079 (≈ 0.226 µM) | 0.4 (≈ 1.14 µM) | 0.63 (≈ 1.8 µM) | 0.32 (≈ 0.916 µM) | 0.63 (≈ 1.8 µM) | 0.79 (≈ 2.26 µM) | 0.025 (≈ 0.0715 µM) | 130 (≈ 372 µM) | 0.4 (≈ 1.14 µM) | 2 (≈ 5.72 µM) | IC50 (Salmonella chlerasuis; [19]): 0.32 µg/mL (≈ 0.916 µM); IC50 (Salmonella enteritidis; [20]): 0.4 µg/mL (≈ 1.14 µM); IC50 (Salmonella typhimurium; [21]): 0.5 µg/mL (≈ 1.43 µM); IC50 [11, 22]: 0.79 µg/mL (≈ 2.26 µM); IC50 (Streptococcus pyogenes; read-out: IC50): 0.013 µg/mL (≈ 0.0372 µM); per cent surviving (Escherichia Coli HA2; single dose 75 μg s.c., given twice, 24 hours): 0 per cent; per cent surviving (Escherichia Coli HA2; single dose 150 μg s.c., given twice, 24 hours): 0 per cent; per cent surviving (Escherichia Coli HA2; single dose 300 μg s.c., given twice, 24 hours (survivors alive after 4 days)): 70 per cent
CC1(C)S[C@@H]2[C@H](N=CN3CCCCCC3)C(=O)N2[C@H]1C(=O)O [Example 6, 6-[(Hexahydro-1H-azepin-1-yl)-methyleneamino]-penicillanic acid] |  |  |  |  |  |  |  |  |  |  |  |  |  |  |  |  |  |  |  |  | solubility (Solubility in water): soluble in water
CC1(C)S[C@@H]2[C@H](/N=C/N3CCCCCC3)C(=O)N2[C@H]1C(=O)O [FL 1060, 6-[(hexahydro-1H-azepin-1-yl)-methyleneamino]-penicillanic acid, hydrochloric, dihydrate] | 0.63 | 5 | 3.2 | 20 | 0.089 | 0.65 | 50 | 0.23 | > 100 | 0.04 | 0.016 | 0.13 | 0.063 | 0.079 | 0.16 | 0.05 | 5 | > 100 | 0.4 | 0.016 | IC50 (Bacillus megatherium KD; Bacillus megatherium KD, read-out: IC50): 0.5 µg/mL; IC50 ([13]; Corynebacterium xerosis FF, read-out: IC50): 1.6 µg/mL; IC50 (Salmonella chlerasuis; [19]): 0.16 µg/mL; IC50 (Salmonella enteritidis; [20]): 0.16 µg/mL; IC50 (Salmonella typhimurium; [21]): 0.063 µg/mL; IC50 [11, 22]: > 100 µg/mL; IC50 (Streptococcus pyogenes; read-out: IC50): 0.5 µg/mL; per cent surviving (Escherichia Coli HA2; single dose 7.5 μg s.c., given twice, 24 hours): 0 per cent; per cent surviving (Escherichia Coli HA2; single dose 15 μg s.c., given twice, 24 hours): 0 per cent; per cent surviving (Escherichia Coli HA2; single dose 30 μg s.c., after half an hour and again after 6 1/2 hours, 24 hours (survivors alive after 4 days)): 50 per cent
CC1(C)S[C@@H]2[C@H](NC(=O)Cc3ccccc3)C(=O)N2[C@H]1C(=O)O [G-Pen., benzylpenicillin] | 1.6 (≈ 4.78 µM) |  |  | 0.025 (≈ 0.0748 µM) | 32 (≈ 95.7 µM) |  |  |  |  |  | 0.13 (≈ 0.389 µM) | 3.2 (≈ 9.57 µM) | 3.2 (≈ 9.57 µM) | 2 (≈ 5.98 µM) | 5 (≈ 15 µM) | 10 (≈ 29.9 µM) | 0.016 (≈ 0.0478 µM) | 100 (≈ 299 µM) | 0.79 (≈ 2.36 µM) | 32 (≈ 95.7 µM) | IC50 (Bacillus megatherium KD; Bacillus): 0.016 µg/mL (≈ 0.0478 µM); IC50 (Bacillus subtilis KA2): 0.01 µg/mL (≈ 0.0299 µM); IC50 ([13]; Corynebacterium xerosis): 0.013 µg/mL (≈ 0.0389 µM); IC50 [1]: 0.01 µg/mL (≈ 0.0299 µM); IC50 [4]: 29 µg/mL (≈ 86.7 µM); IC50 ([5]; Listeria monocytogenes): 0.1 µg/mL (≈ 0.299 µM); IC50 [6]: 5.4 µg/mL (≈ 16.1 µM); IC50 (Pseudomonas aeruginosa): > 100 µg/mL; IC50 ([7]; Salmonella): 2.5 µg/mL (≈ 7.48 µM); IC50 (Salmonella chlerasuis; Salmonella): 1.6 µg/mL (≈ 4.78 µM); IC50 (Salmonella enteritidis; ENTERITIDIS): 2.5 µg/mL (≈ 7.48 µM); IC50 (Salmonella typhimurium; TYPHIMURIUM): 2.5 µg/mL (≈ 7.48 µM); IC50 ([11]; E13): 3.2 µg/mL (≈ 9.57 µM); IC50 (Streptococcus pyogenes): 0.008 µg/mL (≈ 0.0239 µM)
